In US10464926B2, “Heterobicyclic compounds and their use for the treatment of tuberculosis” (OTSUKA PHARMACEUTICAL CO., LTD., priority 2014, dated 2019):

Tests used:
[1] = system: Mycobacterium tuberculosis (M. tuberculosis Kurono); assay: Antibacterial test (agar dilution method), M. tuberculosis Kurono; type: cell-based; settings: 7H11 agar medium, about 10^6 CFU/mL, 37° C. for 14 days; for MIC: Mycobacterium tuberculosis, 336 h, read-out: Minimum inhibitory concentration (MIC) kurono

Question: With `COC1(c2ccc(Cl)cc2F)CCC(O)(COc2ccc(F)c3c2CCC(=O)N3)CC1` (stereo not drawn) [Example 477, 5-{[trans-4-(4-Chloro-2-fluorophenyl)-1-hydroxy-4-methoxycyclohexyl]methoxy}-8-fluoro-3,4-dihydroquinolin-2(1H)-one] as the molecule, how does the “Minimum inhibitory concentration (MIC) kurono” value [1] read?
Answer: Its value is <0.39 µg/mL.

Question: With `O=C1CCc2c(OC[C@@]3(O)CCN(c4ncc(Cl)cc4Cl)C[C@@H]3O)ccc(F)c2N1` [Example 252, 5-{[(3S,4S)-1-(3,5-Dichloropyridin-2-yl)-3,4-dihydroxypiperidin-4-yl]methoxy}-8-fluoro-3,4-dihydroquinolin-2(1H)-one] as the molecule, how does the MIC [1] read?
Answer: The MIC was < 0.39 µg/mL.

Question: Which MIC [1] does the source give for `O=C1CCc2c(NCC3(O)CCN(c4ncc(Cl)cc4Cl)CC3)ccc(F)c2N1` [Example 372, 5-({[1-(3,5-Dichloropyridin-2-yl)-4-hydroxypiperidin-4-yl]methyl}amino)-8-fluoro-3,4-dihydroquinolin-2(1H)-one] here?
Answer: Its MIC is < 0.39 µg/mL.

Question: Which MIC [1] does the source give for `O=C1CCc2c(OCC3(F)CCN(c4ncc(Cl)cc4Cl)CC3)ccc(F)c2N1` [Example 404, 5-{[1-(3,5-Dichloropyridin-2-yl)-4-fluoropiperidin-4-yl]methoxy}-8-fluoro-3,4-dihydroquinolin-2(1H)-one] here?
Answer: Its MIC is < 0.39 µg/mL.

Question: Which MIC [1] does the source give for `O=C1CCc2c(OC[C@@]3(O)CCN(c4ccc(Cl)cc4F)C[C@@H]3O)ccc(F)c2N1` [Example 265, 5-{[(3S,4S)-1-(4-Chloro-2-fluorophenyl)-3,4-dihydroxypiperidin-4-yl]methoxy}-8-fluoro-3,4-dihydroquinolin-2(1H)-one] here?
Answer: Its MIC is < 0.39 µg/mL.

Question: With `O=C1CCc2c(OCC3(O)CCN(c4ccc(Cl)cc4)CC3)ccc(F)c2N1` [Example 49, 5-{[1-(4-Chlorophenyl)-4-hydroxypiperidin-4-yl]methoxy}-8-fluoro-3,4-dihydroquinolin-2(1H)-one] as the molecule, how does the MIC [1] read?
Answer: The MIC was < 0.39 µg/mL.

Question: Which MIC [1] does the source give for `O=C1CCc2c(OC[C@]3(O)CCN(c4c(F)cc(Cl)cc4F)C[C@H]3O)ccc(F)c2N1` [Example 260, 5-{[(3R,4R)-1-(4-Chloro-2,6-difluorophenyl)-3,4-dihydroxypiperidin-4-yl]methoxy}-8-fluoro-3,4-dihydroquinolin-2(1H)-one] here?
Answer: Its MIC is < 0.39 µg/mL.

Question: With `O=C1CCc2c(OC[C@]3(O)CCN(c4c(F)cc(Cl)cc4F)C[C@@H]3O)ccc(F)c2N1` [Example 361, 5-{[(3S,4R)-1-(4-Chloro-2,6-difluorophenyl)-3,4-dihydroxypiperidin-4-yl]methoxy}-8-fluoro-3,4-dihydroquinolin-2(1H)-one] as the molecule, how does the MIC [1] read?
Answer: The MIC was < 0.39 µg/mL.

Question: For `NC1(COc2ccc(Cl)c3c2CCC(=O)N3)CCN(c2ccc(Cl)cc2F)CC1` [Example 14, 5-{[4-Amino-1-(4-chloro-2-fluorophenyl)piperidin-4-yl]methoxy}-8-chloro-3,4-dihydroquinolin-2(1H)-one], which MIC [1] is on record?
Answer: The MIC was < 0.39 µg/mL.

Question: With `Cc1c(F)cc(OCC2(O)CCN(c3cc(F)c(Cl)cc3Cl)CC2)c2c1NC(=O)CC2` [Example 206, 5-{[1-(2,4-Dichloro-5-fluorophenyl)-4-hydroxypiperidin-4-yl]methoxy}-7-fluoro-8-methyl-3,4-dihydroquinolin-2(1H)-one] as the molecule, how does the MIC [1] read?
Answer: Its MIC is < 0.39 µg/mL.

Question: Which MIC [1] does the source give for `NC1(COc2ccc(F)c3c2CCC(=O)N3)CCN(c2ncc(Cl)cc2Cl)CC1` [Example 1, 5-{[4-Amino-1-(3,5-dichloropyridin-2-yl)piperidin-4-yl]methoxy}-8-fluoro-3,4-dihydroquinolin-2(1H)-one] here?
Answer: The MIC was < 0.39 µg/mL.

Question: For `O=C1CCc2c(OC[C@]3(O)CC[C@@H](c4ccc(Cl)cc4F)C[C@H]3O)ccc(F)c2N1` (relative stereo) [Example 471, 5-{[(1R*,2R*,4R*)-4-(4-Chloro-2-fluorophenyl)-1,2-dihydroxycyclohexyl]methoxy}-8-fluoro-3,4-dihydroquinolin-2(1H)-one], which MIC [1] is on record?
Answer: The MIC was < 0.39 µg/mL.

Question: For `CC(=O)O[C@@H]1CN(c2ccc(Cl)cc2F)CC[C@@]1(O)COc1ccc(F)c2c1CCC(=O)N2` [Example 454, (3R,4R)-1-(4-Chloro-2-fluorophenyl)-4-{[(8-fluoro-2-oxo-1,2,3,4-tetrahydroquinolin-5-yl)oxy]methyl}-4-hydroxypiperidin-3-yl acetate], which MIC [1] is on record?
Answer: The MIC was < 0.39 µg/mL.

Question: For `O=C1CCc2c(OCC3(O)CCN(c4c(F)cc(F)cc4F)CC3)cc(F)c(Cl)c2N1` [Example 214, 8-Chloro-7-fluoro-5-{[4-hydroxy-1-(2,4,6-trifluorophenyl)piperidin-4-yl]methoxy}-3,4-dihydroquinolin-2(1H)-one], which MIC [1] is on record?
Answer: Its MIC is < 0.39 µg/mL.

Question: With `O=C1CCc2c(OCC3(O)CCN(c4ccc(Br)cc4F)CC3)cc(F)c(F)c2N1` [Example 130, 5-{[1-(4-Bromo-2-fluorophenyl)-4-hydroxypiperidin-4-yl]methoxy}-7,8-difluoro-3,4-dihydroquinolin-2(1H)-one] as the molecule, how does the MIC [1] read?
Answer: Its MIC is < 0.39 µg/mL.

Question: With `O=C1CCc2c(OCC3(O)CCC(O)(c4ccc(Cl)cc4F)CC3)ccc(F)c2N1` (stereo not drawn) [Example 465, 5-{[trans-4-(4-Chloro-2-fluorophenyl)-1,4-dihydroxycyclohexyl]methoxy}-8-fluoro-3,4-dihydroquinolin-2(1H)-one] as the molecule, how does the “Minimum inhibitory concentration (MIC) kurono” value [1] read?
Answer: Its value is <0.39 µg/mL.

Question: With `CCOC(=O)O[C@@H]1CN(c2c(F)cc(Cl)cc2F)CC[C@@]1(O)COc1ccc(F)c2c1CCC(=O)N2` [Example 450, (3R,4R)-1-(4-chloro-2,6-difluorophenyl)-4-{[(8-fluoro-2-oxo-1,2,3,4-tetrahydroquinolin-5-yl)oxy]methyl}-4-hydroxypiperidin-3-yl ethyl carbonate] as the molecule, how does the MIC [1] read?
Answer: The MIC was < 0.39 µg/mL.

Question: Which MIC [1] does the source give for `O=C1CCc2c(OC[C@]3(O)CCN(c4ncc(Cl)cc4Cl)C[C@H]3O)ccc(F)c2N1` [Example 251, 5-{[(3R,4R)-1-(3,5-Dichloropyridin-2-yl)-3,4-dihydroxypiperidin-4-yl]methoxy}-8-fluoro-3,4-dihydroquinolin-2(1H)-one] here?
Answer: Its MIC is < 0.39 µg/mL.

Question: With `O=c1ccc2c(OC[C@]3(O)CCN(c4ccc(Br)cc4F)C[C@H]3O)ccc(F)c2[nH]1` (relative stereo) [Example 369, 5-{[(3R*,4R*)-1-(4-Bromo-2-fluorophenyl)-3,4-dihydroxypiperidin-4-yl]methoxy}-8-fluoroquinolin-2(1H)-one] as the molecule, how does the MIC [1] read?
Answer: The MIC was < 0.39 µg/mL.

Question: For `O=C1CCc2c(cc(F)cc2OCC2(O)CCN(c3ccc(Cl)cc3F)CC2)N1` [Example 194, 5-{[1-(4-Chloro-2-fluorophenyl)-4-hydroxypiperidin-4-yl]methoxy}-7-fluoro-3,4-dihydroquinolin-2(1H)-one], which MIC [1] is on record?
Answer: Its MIC is < 0.39 µg/mL.

Question: For `O=C1CCc2c(OCC3(O)CCC(c4ccc(Cl)cc4F)CC3)ccc(F)c2N1` (stereo not drawn) [Example 469, 5-{[cis-4-(4-Chloro-2-fluorophenyl)-1-hydroxycyclohexyl]methoxy}-8-fluoro-3,4-dihydroquinolin-2(1H)-one], which “Minimum inhibitory concentration (MIC) kurono” value [1] is on record?
Answer: Its value is <0.39 µg/mL.

Question: With `O=C1CCc2c(OC[C@]3(O)CCN(c4nc5ccc(Cl)cc5cc4Br)C[C@H]3O)ccc(F)c2N1` [Example 288, 5-{[(3R,4R)-1-(3-Bromo-6-chloroquinolin-2-yl)-3,4-dihydroxypiperidin-4-yl]methoxy}-8-fluoro-3,4-dihydroquinolin-2(1H)-one] as the molecule, how does the MIC [1] read?
Answer: Its MIC is < 0.39 µg/mL.

Question: With `O=C1CCc2c(CCC3(O)CCN(c4c(F)cc(Cl)cc4F)CC3)ccc(F)c2N1` [Example 463, 5-{2-[1-(4-Chloro-2,6-difluorophenyl)-4-hydroxypiperidin-4-yl]ethyl}-8-fluoro-3,4-dihydroquinolin-2(1H)-one] as the molecule, how does the MIC [1] read?
Answer: The MIC was < 0.39 µg/mL.

Question: Which melting point does the source give for `O=C1CCc2c(OC[C@]3(O)CCN(c4c(F)cc(F)cc4Cl)C[C@H]3O)ccc(F)c2N1` [Example 304] here?
Answer: The melting point was 188 to 189 °C.

Question: With `O=C1CCc2c(OCC3(O)CCN(c4cccnc4)CC3)ccc(F)c2N1` as the molecule, how does the melting point read?
Answer: The melting point was 178.2 to 178.8 °C.

Question: Which melting point does the source give for `O=C1CCc2c(OC[C@]3(O)CCN(c4ccc(F)cc4Cl)C[C@H]3F)ccc(F)c2N1` (relative stereo) here?
Answer: Its melting point is 218 to 220 °C.

Question: For `O=C1CCc2c(OCC3(O)CCN(c4c(F)cc(Cl)cc4Cl)CC3)ccc(F)c2N1`, which melting point is on record?
Answer: The melting point was 238.8 to 239.1 °C.

Question: With `Cc1cc(Cl)cc(Cl)c1N1CCC(O)(COc2ccc(F)c3c2CCC(=O)N3)CC1` as the molecule, how does the melting point read?
Answer: The melting point was 251.6 to 251.9 °C.

Question: For `O=C1CCc2c(OC[C@]3(O)CCN(c4c(F)cc(Cl)cc4F)C[C@@H]3F)ccc(F)c2N1` (relative stereo) [Example 439], which melting point is on record?
Answer: The melting point was 223 to 224 °C.

Question: Which melting point does the source give for `O=C1CCc2c(OC[C@]3(O)CCN(c4ccc(F)cc4F)C[C@H]3O)ccc(F)c2N1` here?
Answer: The melting point was 175.2 to 176.1 °C.

Question: Which melting point does the source give for `O=C1CCc2c(OCC3(O)CCN(c4nc5ccc(Cl)cc5o4)CC3)ccc(F)c2N1` here?
Answer: The melting point was 249 to 250 °C.

Question: With `CCOc1c(F)c(F)c(N2CCC(O)(COc3ccc(Cl)c4c3CCC(=O)N4)CC2)c(F)c1F` as the molecule, how does the melting point read?
Answer: Its melting point is 174.4 to 174.5 °C.

Question: For `O=C1CCc2c(OCC3(O)CCN(c4ccc5c(c4)OC(F)(F)O5)CC3)ccc(F)c2N1`, which melting point is on record?
Answer: Its melting point is 198.4 to 198.5 °C.

Question: With `N#C[C@H]1CN(c2ncc(Cl)cc2Cl)CC[C@@]1(O)COc1ccc(F)c2c1CCC(=O)N2` (relative stereo) as the molecule, how does the melting point read?
Answer: The melting point was 206 to 207 °C.

Question: With `COc1cc(N2CCC(O)(COc3ccc(Cl)c4c3CCC(=O)N4)CC2)c(F)cc1F` as the molecule, how does the melting point read?
Answer: Its melting point is 191.4 to 191.7 °C.

Question: For `CCOc1cc(N2CCC(O)(COc3ccc(Cl)c4c3CCC(=O)N4)CC2)c(F)cc1Cl`, which melting point is on record?
Answer: Its melting point is 228.1 to 229 °C.

Question: For `O=C1CCc2c(OCC3(O)CCN(c4cc(Cl)c(F)cc4Cl)CC3)ccc(F)c2N1`, which melting point is on record?
Answer: Its melting point is 207.9 °C.

Question: Which melting point does the source give for `COc1cc(N2CCC(O)(COc3ccc(F)c4c3CCC(=O)N4)CC2)c(F)cc1Cl` here?
Answer: The melting point was 232.4 to 232.5 °C.

Question: With `O=C1CCc2c(OCC3(O)CCN(c4ccsc4)CC3)ccc(F)c2N1` as the molecule, how does the melting point read?
Answer: The melting point was 200.4 to 200.5 °C.

Question: With `O=c1ccc2c(OC[C@]3(O)CCN(c4c(F)cc(Cl)cc4F)C[C@H]3O)ccc(Cl)c2[nH]1` as the molecule, how does the melting point read?
Answer: Its melting point is 228.8 to 229.5 °C.

Question: With `COCCOc1ccc(N2CCC(O)(COc3ccc(F)c4c3CCC(=O)N4)CC2)c(F)c1` as the molecule, how does the melting point read?
Answer: The melting point was 174 °C.

Question: Which melting point does the source give for `CCCc1ccc(N2CCC(O)(COc3ccc(F)c4c3CCC(=O)N4)CC2)c(Cl)c1` here?
Answer: The melting point was 197.5 to 197.6 °C.

Question: For `COc1ccc(N2CCC(O)(COc3ccc(F)c4c3CCC(=O)N4)CC2)c(F)c1`, which melting point is on record?
Answer: Its melting point is 201.3 to 201.9 °C.

Question: Which melting point does the source give for `O=C1CCc2c(OC[C@]3(O)CCN(c4nc5ccccc5[nH]4)C[C@H]3O)ccc(F)c2N1` here?
Answer: The melting point was 279 to 281 °C.

Question: For `O=C1CCc2c(OCC3(O)CCN(c4c(F)cc(Cl)cc4F)CC3)ccc(F)c2N1`, which melting point is on record?
Answer: The melting point was 225.5 to 225.6 °C.

Question: Which melting point does the source give for `CC(C)Oc1cc(N2CCC(O)(COc3ccc(F)c4c3CCC(=O)N4)CC2)c(F)cc1Cl` here?
Answer: The melting point was 216.7 to 217 °C.
